From patent US6660846B1, “Vesicular amino acid transporter composition and method” (The Regents of the University of CA, priority 1997, dated 2003)
Like-named read-outs stand apart in the source and are kept apart here.

Key:
[1] = target: T1, rVGAT (RUNC-47, rat unc-47 homologue) (Rattus norvegicus, UniProt O35458); assay: 3H-GABA transport assay in vesicles from PC12 cells stably expressing rVGAT (RUNC-47); assay type: biochemical
T1 construct: expressed in transfected cells
T1 sequence (O35458 1-525): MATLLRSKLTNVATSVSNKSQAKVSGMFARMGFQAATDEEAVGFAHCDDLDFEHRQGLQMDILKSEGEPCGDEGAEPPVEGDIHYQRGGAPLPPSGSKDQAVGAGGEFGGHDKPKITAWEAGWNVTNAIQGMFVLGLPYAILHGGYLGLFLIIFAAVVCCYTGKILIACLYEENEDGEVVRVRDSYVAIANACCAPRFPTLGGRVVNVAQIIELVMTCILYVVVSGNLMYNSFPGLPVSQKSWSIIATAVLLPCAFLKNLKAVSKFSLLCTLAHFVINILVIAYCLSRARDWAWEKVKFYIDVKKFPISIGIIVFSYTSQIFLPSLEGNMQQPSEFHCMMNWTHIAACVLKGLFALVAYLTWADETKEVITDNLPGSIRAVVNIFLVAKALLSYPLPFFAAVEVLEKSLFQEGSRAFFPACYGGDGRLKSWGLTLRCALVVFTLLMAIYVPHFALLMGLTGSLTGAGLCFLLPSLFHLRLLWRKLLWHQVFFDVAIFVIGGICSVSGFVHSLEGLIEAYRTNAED
Method: Stable PC12 transformants expressing high levels of the putative transport protein were isolated by screening cell clones with fluorescent-tagged antibodies generated against the rat unc-47 homologue RUNC-47. […] A population of light vesicles was then isolated from two stable transformants and purified by differential centrifugation (Example 7).
Hereafter, the terms RUNC-47 and rVGAT are used interchangeably.
These studies were carried out in the transport assay detailed in Example 8, using synaptic vesicles prepared from transfected PC-12 cells, as described above and detailed in Example 7.
Briefly, vesicles were prepared from PC12 cell clone B1 stably expressing rVGAT and from un-transfected cells.
The rat unc-47 homologue cDNA subcloned into the plasmid expression vector pcDNA3-Amp (InVitrogen; Carlsbad, Calif.) was introduced into PC12 cells by electroporation (Grote, et al., Cell 81, 581-589, 1995). […] The nuclear debris was sedimented at 100 g for 5 minutes and heavier membranes were eliminated by centrifugation at 27,000 g for 1 hour The remaining light membrane vesicles were sedimented at 65,000 g for 1 hour and resuspended in SH containing the same protease inhibitors at a final concentration of approximately 10 μg protein/μl.
Incubation was performed at 29° C. for varying intervals and the reaction was terminated by rapid filtration (Supor 200, Gelman; AnnArbor, Mich.), followed by immediate washing with 6 ml cold 0.15 M KCl. Background uptake was determined by incubation at 4° C. for 0 minutes. The bound radioactivity was measured by scintillation counting in 2.5 ml Cytoscint (ICN). […] Nigericin and valinomycin were dissolved in ethanol and added to final concentrations of 5 μM and 20 μM respectively. Transport measurements were performed in duplicate and repeated three or more times using at least two different membrane preparations.

RUNC-47 (rVGAT) = RUNC-47 (rVGAT) (Rattus norvegicus, UniProt O35458)
[2] = target: T2, vesicular monoamine transporter 1 (VMAT1) (Rattus norvegicus, UniProt Q01818); assay: Serotonin transport by endogenous VMAT1 in the same PC12 cell membrane preparations; assay type: biochemical
T2 construct: transport of serotonin by endogenous VMAT1; endogenous in cells; host or cells: PC12 cells (clone B1 stably expressing rVGAT), light membrane vesicles
T2 sequence (Q01818 1-521): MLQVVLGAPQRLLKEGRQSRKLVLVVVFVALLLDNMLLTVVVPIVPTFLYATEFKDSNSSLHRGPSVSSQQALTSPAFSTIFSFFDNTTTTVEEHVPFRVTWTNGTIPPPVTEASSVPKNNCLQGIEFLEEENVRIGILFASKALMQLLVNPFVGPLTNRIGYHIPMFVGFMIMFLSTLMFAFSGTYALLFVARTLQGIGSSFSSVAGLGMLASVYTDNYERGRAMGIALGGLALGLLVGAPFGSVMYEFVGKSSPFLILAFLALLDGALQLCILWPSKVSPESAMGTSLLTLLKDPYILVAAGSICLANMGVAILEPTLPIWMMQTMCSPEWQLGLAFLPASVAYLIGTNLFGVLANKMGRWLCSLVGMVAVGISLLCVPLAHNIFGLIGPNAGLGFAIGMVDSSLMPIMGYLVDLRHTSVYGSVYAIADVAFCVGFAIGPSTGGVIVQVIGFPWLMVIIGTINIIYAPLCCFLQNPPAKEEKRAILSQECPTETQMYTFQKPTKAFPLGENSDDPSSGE
Description: Since nigericin inhibits VMAT1 activity on these vesicles to a greater extent (approximately 65%) than it inhibits rVGAT activity, vesicular transport of serotonin has a greater dependence on ΔpH. […] Thus, rVGAT and VMAT1 depend on both components of the electrochemical gradient but VMAT1 depends to a greater extent on ΔpH, consistent with previous results using mixed populations of synaptic vesicles.

[3] = substrate: NCCCC(=O)O; assay: cells, lysate or membranes named; conditions: other: transfected PC12 cell vesicles; uptake measured at 30 seconds; pH 7.4; 29.0 °C

NCCCC(=O)O [GABA, gamma-aminobutyric acid]
IC50 [1]: 4.75 mM

C=CC(N)CCC(=O)O (stereo not drawn) [gamma-vinyl-GABA]
IC50 [1]: 7.5 mM
Inhibition of rVGAT activity (3H-GABA transport), in words [1]: as potently as unlabelled GABA

N[C@@H](CCC(=O)O)C(=O)O [glutamate]
Inhibition of rVGAT activity (3H-GABA transport), in words [1]: does not inhibit rVGAT activity even at extremely high concentrations
IC50 ([1]; read-out: Inhibition of GABA Transport by Structurally Related Compounds, IC50, vesicles from rVGAT-transfected PC12 cells, about 40 μM GABA including radiolabeled GABA): > 100 mM

NCC(=O)O [glycine]
Uptake of 3H-glycine by RUNC-47 PC-12 vesicle preparations (RUNC-47 (rVGAT)): no significant uptake
IC50 [1]: 27.5 mM
Inhibition of rVGAT activity (3H-GABA transport), in words [1]: relatively low potency

CCCC(=O)O [n-butyric acid]
IC50 [1]: 43.5 mM
Inhibition of rVGAT activity (3H-GABA transport), in words ([1]; vesicles from rVGAT-transfected PC12 cells, about 40 μM GABA): inhibits both rVGAT activity and GABA transport into brain synaptic vesicles

CO[C@@H]1C[C@@H](C[C@H]2CC[C@H](C)[C@H]([C@@H](C)C(=O)O)O2)O[C@]2(O[C@](C)([C@H]3CC[C@@](C)([C@@H]4O[C@@H]([C@H]5O[C@@](O)(CO)[C@H](C)C[C@@H]5C)C[C@@H]4C)O3)C[C@H]2C)[C@@H]1C [nigericin]
Inhibition of serotonin transport by endogenous VMAT1 ([2]; nigericin, membranes from transfected PC12 cells that express VGAT): approximately 65%
Inhibition of GABA transport in rVGAT transfected cells ([1]; nigericin 5 FM, PC12 clone B1 membranes): approximately 40%

CC(C)[C@@H]1NC(=O)[C@H](C)OC(=O)[C@@H](C(C)C)NC(=O)[C@@H](C(C)C)OC(=O)[C@H](C(C)C)NC(=O)[C@H](C)OC(=O)[C@@H](C(C)C)NC(=O)[C@@H](C(C)C)OC(=O)[C@H](C(C)C)NC(=O)[C@H](C)OC(=O)[C@@H](C(C)C)NC(=O)[C@@H](C(C)C)OC1=O [valinomycin]
Effect on residual VMAT1 activity of adding valinomycin to nigericin ([2]; valinomycin added to nigericin, same PC12 membranes): eliminates the residual VMAT1 activity
Effect on rVGAT activity of adding valinomycin to nigericin ([1]; valinomycin 20 FM added to nigericin 5 FM, PC12 clone B1 membranes): eliminates rVGAT activity

B1: rVGAT (RUNC-47, rat unc-47 homologue) (Rattus norvegicus) (protein)
chain: MATLLRSKLTNVATSVSNKSQAKVSGMFARMGFQAATDEEAVGFAHCDDLDFEHRQGLQMDILKSEGEPCGDEGAEPPVEGDIHYQRGGAPLPPSGSKDQAVGAGGEFGGHDKPKITAWEAGWNVTNAIQGMFVLGLPYAILHGGYLGLFLIIFAAVVCCYTGKILIACLYEENEDGEVVRVRDSYVAIANACCAPRFPTLGGRVVNVAQIIELVMTCILYVVVSGNLMYNSFPGLPVSQKSWSIIATAVLLPCAFLKNLKAVSKFSLLCTLAHFVINILVIAYCLSRARDWAWEKVKFYIDVKKFPISIGIIVFSYTSQIFLPSLEGNMQQPSEFHCMMNWTHIAACVLKGLFALVAYLTWADETKEVITDNLPGSIRAVVNIFLVAKALLSYPLPFFAAVEVLEKSLFQEGSRAFFPACYGGDGRLKSWGLTLRCALVVFTLLMAIYVPHFALLMGLTGSLTGAGLCFLLPSLFHLRLLWRKLLWHQVFFDVAIFVIGGICSVSGFVHSLEGLIEAYRTNAED
Km [3]: 5 mM
